Assay results taken from US20260174721A1, “AGENT FOR RESTORING METAL HOMEOSTASIS” (Oxford Antibiotic Group GmbH, priority 2022, published 2026).

Legend:
[1] = test system: transgenic C. elegans strain CL2659; test: β-amyloid test system: delay of paralysis in transgenic C. elegans strain CL2659 (Alzheimer testing); type: in vivo, Caenorhabditis elegans; settings: CL2659 stage L3 larvae, 48 hours, tested at 1 mg/ml, 100 μg/ml, 10 μg/ml, — = no effect even at 1 mg/ml; for minimal effective concentration: Caenorhabditis elegans, read-out: Alzheimer: concentration range in which a delay in paralysis was observed
Description: For this purpose, stage L3 worm larvae were used at a density of 10-20 worms per well. The expression of β-amyloid in the muscle cells was induced by increasing the temperature, and the associated paralysis was recorded at regular intervals until the end of the test after 48 hours.
(§1) For this purpose, the above substances were tested at concentrations of 1 mg/ml, 100 μg/ml, and 10 μg/ml in comparison with quercetin as a […] control.

[2] = test system: transgenic C. elegans strain NL5901; test: α-synuclein test system: reduction of α-synuclein-GFP expression in transgenic C. elegans strain NL5901 (Parkinson testing); type: in vivo, Caenorhabditis elegans; settings: NL5901, GFP readout 24 to 48 hours, tested at 1 mg/ml, 100 μg/ml, 10 μg/ml, — = no effect even at 1 mg/ml; for minimal effective concentration: Caenorhabditis elegans, read-out: Parkinson: concentration range in which a reduction in α-synuclein expression was detectable
Description: (§2) The same substances as above were tested in a 96-well procedure in the initially mentioned screening assay using the nematode Caenorhabditis elegans (Pretsch et al., see above) in a standardized α-synuclein test system using the transgenic C. elegans strain NL5901 for their potential suitability as an agent for treating Parkinson's disease. This worm strain expresses human α-synuclein bound to green fluorescent protein (GFP) in all muscle cells. GFP labeling allows a direct detection of expressed protein levels using a multiplate reader for 24 to 48 hours.
(§3) For this purpose, the substances were again tested at concentrations of 1 mg/ml, 100 μg/ml, and 10 μg/ml, but this time in comparison to the initially mentioned Parkinson therapeutic agent levodopa as a control.

Caenorhabditis elegans = test: C. elegans nematode assay, overall rating over the Alzheimer and Parkinson tests; type: in vivo; settings: for minimal effective concentration: Caenorhabditis elegans, read-out: Score
Description: The substances (1) to (41) and (101) to (108), prepared in the above synthesis examples or purchased, were tested for their potential suitability as an agent for treating Alzheimer's disease in a 96-well procedure in the initially mentioned screening assay using the nematode Caenorhabditis elegans (Pretsch et al., see above) in a standardized β-amyloid test system using the transgenic C. elegans strain CL2659. For this purpose, stage L3 worm larvae were used at a density of 10-20 worms per well. The expression of β-amyloid in the muscle cells was induced by increasing the temperature, and the associated paralysis was recorded at regular intervals until the end of the test after 48 hours.
as §1, §2, §3

mouse test model = settings: Parkinson's disease; cited from earlier work
metallothioneins = settings: C. elegans nematode assay; cited from earlier work
[3] = rating from the effective concentration in both tests

Row | Structure (SMILES) | minimal effective concentration [1] [µg/mL] | minimal effective concentration [2] [µg/mL] | minimal effective concentration (Caenorhabditis elegans; [3]) [µg/mL] | further results
1 | O=C(CC(=O)N1CCNCC1)NC12CC3CC(CC(C3)C1)C2 [(20), N-adamantan-1-yl-N′-piperazine malonic acid diamide] | > 10 | > 10 | 10 to 100 | 
2 | NCCCC(=O)N1CCN(C(=O)CC(=O)NC23CC4CC(CC(C4)C2)C3)CC1 [(21), N-adamantan-1-yl-N′-(4-(4-aminobutyryl)piperazine)malonic acid diamide] | > 10 | > 10 | 10 to 100 | 
3 | NCCCNC(=O)CC(=O)N1CCCC2CCCCC21 (centres unmarked) [(24), N-(3-aminopropyl)-N′-decahydroquinoline malonic acid diamide] | > 10 | > 10 | 10 to 100 | 
4 | NCCCNC(=O)CC(=O)N1CCC2CCCCC2C1 (centres unmarked) [(25), N-(3-aminopropyl)-N′-decahydroisoquinoline malonic acid diamide] | > 10 | > 10 | 10 to 100 | 
5 | CC1(C)C2CCC(CNC(=O)CC(=O)NCCCN)C1C2 (centres unmarked) [(26), N-(3-aminopropyl)-N′-(6,6-dimethylbicyclo[3.1.1]heptane-2-ylmethyl)malonic acid diamide] | > 10 | > 10 | 10 to 100 | 
6 | CN(C)CCCNC(=O)CC(=O)OC12CC3CC(CC(C3)C1)C2 [(27), malonic acid adamantan-1-yl ester N-(3-dimethylaminopropyl)amide] | > 10 | > 10 | 10 to 100 | 
7 | O=C(CC(=O)OC12CC3CC(CC(C3)C1)C2)NCCCN1CCOCC1 [(28), malonic acid adamantan-1-yl ester N-(3-morpholinopropyl)amide] | > 10 | > 10 | 10 to 100 | 
8 | CC12CC3CC(C)(C1)CC(NC(=O)CC(=O)O)(C3)C2 [(32), malonic acid N-(3,5-dimethyl)adamantan-1-yl amide] | > 10 | > 10 | 10 to 100 | 
9 | CC12CC3CC(C)(C1)CC(NC(=O)CC(=O)NCCCN)(C3)C2 [(33), N-(3,5-dimethyladamantan-1-yl)-N′-(3-aminopropyl)malonic acid diamide] | > 10 | > 10 | 10 to 100 | 
10 | CC12CC3CC(C)(C1)CC(NC(=O)CC(=O)NCCCN1CCOCC1)(C3)C2 [(34), N-(3,5-dimethyladamantan-1-yl)-N′-(3-morpholinopropyl)malonic acid diamide] | > 10 | > 10 | 10 to 100 | 
11 | COc1ccccc1N1CCN(C(=O)CC(=O)NC23CC4CC(C)(CC(C)(C4)C2)C3)CC1 [(38), N-(3,5-dimethyladamantan-1-yl)-N′-4-(2-methoxyphenyl)piperazine malonic acid diamide] |  |  |  | Alzheimer: concentration range in which a delay in paralysis was observed [1]: >100 µg/mL; Parkinson: concentration range in which a reduction in α-synuclein expression was detectable [2]: >100 µg/mL; Score (Caenorhabditis elegans; [3]): ++ (a compound that is already effective at a concentration >10 μg/ml and therefore rated “++”)
12 | CC12CC3CC(C)(C1)CC(NC(=O)CC(=O)N1CCN(CC(=O)N4CCOCC4)CC1)(C3)C2 [(41), N-(3,5-dimethyladamantan-1-yl)-N′-4-(2-morpholino-2-oxoethyl)piperazine malonic acid diamide] | > 10 | > 10 | 10 to 100 | concentration from which the compound was effective (Caenorhabditis elegans; both tests): > 10 µg/mL
13 | CC(C)(S)[C@@H](N)C(=O)O [D-penicillamine, 2-amino-3-mercapto-3-methyl butanoic acid] |  |  |  | neuroprotective effect / neurotoxicity (mouse test model): did not show any neuroprotective effect
14 | Oc1c(I)cc(Cl)c2cccnc12 [clioquinol, 5-chloro-7-iodoquinolin-8-ol] |  |  |  | body's own biosynthesis of metallothioneins (metallothioneins): prolongation of the body's own biosynthesis of metallothioneins
15 | CCN(CC)C(=S)S [diethyl dithiocarbamate, diethyldithiocarbamate] |  |  |  | neuroprotective effect / neurotoxicity (mouse test model): higher neurotoxicity
16 | Cc1cc(O)c2c(c1)C(=O)c1cc(O)cc(O)c1C2=O [emodin, 1,3,8-trihydroxy-6-methylanthracene-9,10-dione] |  |  |  | body's own biosynthesis of metallothioneins (metallothioneins): prolongation of the body's own biosynthesis of metallothioneins
